Experimental findings from patent US20230203060A1 (GENFLEET THERAPEUTICS (SHANGHAI) INC., priority 2020, published 2023) are described below.

Structures are written as SMILES.

Format in all cases: cell-based, human
Assay [1] deals with KRAS G12C mutant NCI-H358 cells. As to the kind of experiment: Cell proliferation inhibition experiment, 3D spheroid, CellTiter-Glo, NCI-H358. To be noted: Homo sapiens, NCI-H358, 120 h, NCI-H358 (KRAS G12C mutant) 3D spheroid, 5 days with compound, CellTiter-Glo; read-out: H358 IC50. The method, boiled down: (§1)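 NCI-H358 (800 cells/well, RPMI-1640) and A549 (400 cells/well, F-12K) grown overnight as 3D spheroids in 2% FBS medium, then exposed 5 days to 3.16-fold compound dilutions at 0.1% DMSO. Viability measured by CellTiter-Glo luminescence; inhibition relative to DMSO and medium blank, IC50 from four-parameter fit.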
(In ATP-based viability assays light output follows the ATP content of the culture.)

Assay [2] relates to A549 cells (KRAS G12S mutant). Nature of the assay: Cell proliferation inhibition experiment, 3D spheroid, CellTiter-Glo, A549. To be noted: Homo sapiens, A549, 120 h, A549 (KRAS G12S mutant) 3D spheroid, 5 days with compound, CellTiter-Glo; read-out: A549 IC50. The method, boiled down:
as §1

The test system of assay [3] is KRAS G12C mutant MIA PaCa-2 cells. As to the kind of experiment: Cell proliferation inhibition experiment, 3D spheroid, CellTiter-Glo, MIA PaCa-2. The conditions noted are these: Homo sapiens, MIA PaCa-2, 120 h, 3D cell model in 384-well spheroid plate, 5 days, CellTiter-Glo; read-out: MIA-PaCa2 IC50. The method, boiled down: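 200 MIA PaCa-2 cells/well grown overnight as 3D spheroids, then exposed to 3.16-fold compound dilutions (0.1% DMSO final) for 5 days. Viability read by CellTiter-Glo luminescence; inhibition calculated against DMSO and medium-only controls, and IC50 fitted by four-parameter model.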

One may read the IC50 as the concentration that gives 50% inhibition. As for `C=CC(=O)N1CCN2C(=O)c3c(N4CC(N(C)CCOC)CC4(C)C)nc(-c4c(O)cccc4F)c(Cl)c3OCC2C1` (single isomer, unassigned) [Z296-1], the concentration for half-maximal inhibition (IC50) in assay [1] amounted to 0.4 nM; in assay [2], 3340 nM; in assay [3], 1.1 nM.
Consider `C=CC(=O)N1CCN2C(=O)c3c(N4C[C@H](N(C)CCOC)CC4(C)C)nc(-c4c(O)cccc4F)c(Cl)c3OC[C@H]2C1` (single isomer, unassigned) [Z296-2], for which the IC50 worked out at 2.4 nM in assay [1], 3790 nM in assay [2] and 8 nM in assay [3].
`C=CC(=O)N1CCN2C(=O)c3c(N4C[C@H](N5CCOCC5)CC4(C)C)nc(-c4c(O)cccc4F)c(Cl)c3OC[C@H]2C1` (single isomer, unassigned) [Z297-1]: the concentration for half-maximal inhibition (IC50) in assay [1] stood at 1 nM; in assay [2] it was 7000 nM; in assay [3] it was 3 nM.
For the compound `C=CC(=O)N1CCN2C(=O)c3c(N4C[C@@H](N5CCOCC5)CC4(C)C)nc(-c4c(O)cccc4F)c(Cl)c3OC[C@H]2C1` (single isomer, unassigned) [Z297-2], the 50% inhibitory concentration (IC50) came to 1 nM in assay [1], 8700 nM in assay [2] and 3 nM in assay [3].
Take `C=CC(=O)N1CCN2C(=O)c3c(N4CCN(C)[C@H](C)[C@@H]4C)nc(-c4c(O)cccc4F)c(Cl)c3OC[C@H]2C1` (single isomer, unassigned) [Z308a-1]: the values for the IC50 in assay [1], in assay [2] and in assay [3] were 7.1 nM, 14400 nM and 7.8 nM, respectively.
On to `C=CC(=O)N1CCN2C(=O)c3c(N4C[C@@H](N(C)C)CC4(C)C)nc(-c4c(O)cccc4F)c(Cl)c3OC[C@H]2C1` (single isomer, unassigned) [Z324-1], for which the results for the half-maximal inhibitory concentration (IC50) in assay [1], in assay [2] and in assay [3] were 1.3 nM, 2850 nM and 2.4 nM, respectively.
`C=CC(=O)N1CCN2C(=O)c3c(N4C[C@H](N(C)C)CC4(C)C)nc(-c4c(O)cccc4F)c(Cl)c3OC[C@H]2C1` (single isomer, unassigned) [Z324-2]: the results for the IC50 in assay [1], in assay [2] and in assay [3] were 4.4 nM, 4650 nM and 6.1 nM, respectively.
On to `C=CC(=O)N1CCN2C(=O)c3c(N4C[C@H](O)CC4(C)C)nc(-c4ccccc4F)c(Cl)c3OC[C@H]2C1` (single isomer, unassigned) [Z325-2], for which the IC50 in assay [1] is 6.1 nM; in assay [2], greater than 30000 nM; in assay [3], 15.5 nM.
Consider `C=CC(=O)N1CCN2C(=O)c3c(N4CC[C@@H](OC)C4(C)C)nc(-c4c(O)cccc4F)c(F)c3OC[C@H]2C1` (single isomer, unassigned) [Z327-1], for which the IC50 in assay [1] came out at 4 nM; in assay [2] it was 7930 nM; in assay [3], 7.1 nM.
As for `C=CC(=O)N1CCN2C(=O)c3c(N4CC[C@H](OC)C4(C)C)nc(-c4c(O)cccc4F)c(F)c3OC[C@H]2C1` (single isomer, unassigned) [Z327-2], the half-maximal inhibitory concentration (IC50) in assay [1] turned out to be 8.4 nM; in assay [2], 9510 nM; in assay [3], 16.2 nM.
As for `C=CC(=O)N1CCN2C(=O)c3c(N4CCO[C@](C)(CO)C4)nc(-c4c(O)cccc4F)c(Cl)c3OC[C@H]2C1` (single isomer, unassigned) [Z333-1], the half-inhibitory concentration (IC50) in assay [1] was 26 nM; in assay [2] it was greater than 30000 nM; in assay [3], 30 nM.
For the compound `C=CC(=O)N1CCN2C(=O)c3c(N4C[C@@H](O)CC4(C)C)nc(-c4c(O)ccc(Cl)c4F)c(F)c3OC[C@H]2C1` (single isomer, unassigned) [Z340-1], the results for the IC50 in assay [1], in assay [2] and in assay [3] were 5.2 nM, 5510 nM and 11 nM, respectively.
With `C=CC(=O)N1CCN2C(=O)c3c(N4C[C@H](O)CC4(C)C)nc(-c4c(O)ccc(Cl)c4F)c(F)c3OC[C@H]2C1` (single isomer, unassigned) [Z340-2], the half-maximal inhibitory concentration (IC50) was 26.7 nM in assay [1], 3170 nM in assay [2] and 74 nM in assay [3].
Taken in the same sequence, the figures for `C=CC(=O)N1CCN2C(=O)c3c(N4C[C@@H](O)CC4(C)C)nc(-c4c(F)ccc(Cl)c4O)c(F)c3OC[C@H]2C1` (single isomer, unassigned) [Z341-1] were 8 nM, 11100 nM and 24 nM.
In the case of `C=CC(=O)N1CCN2C(=O)c3c(N4Cc5nn(C)cc5[C@@H]4C)nc(-c4c(O)cccc4F)c(Cl)c3OC[C@H]2C1` (single isomer, unassigned) [Z345-2], the 50% inhibitory concentration (IC50) stood at 11.8 nM in assay [1], 9400 nM in assay [2] and 17 nM in assay [3].
As for `C=CC(=O)N1CCN2C(=O)c3c(N4CC[C@@H](N(C)C)C4(C)C)nc(-c4c(O)cccc4F)c(Cl)c3OC[C@H]2C1` (single isomer, unassigned) [Z360-1], the IC50 in assay [1] came to 11.8 nM; in assay [2] it was 2530 nM; in assay [3], 19.6 nM.
`C=CC(=O)N1CCN2C(=O)c3c(N4CC[C@H](N(C)C)C4(C)C)nc(-c4c(O)cccc4F)c(Cl)c3OC[C@H]2C1` (single isomer, unassigned) [Z360-2]: the concentration for half-maximal inhibition (IC50) in assay [1] is 3 nM; in assay [2], greater than 10000 nM; in assay [3], 6 nM.
For `C=CC(=O)N1CCN2C(=O)c3c(N4C[C@@H](O)CC4(C)C)nc(-c4c(F)ccc(F)c4O)c(F)c3OC[C@H]2C1` (single isomer, unassigned) [Z449-1], the IC50 is 7 nM in assay [1], greater than 30000 nM in assay [2] and 22 nM in assay [3].
In the case of `C=CC(=O)N1CCN2C(=O)c3c(Nc4c(C(C)C)ncnc4C(C)C)nc(-c4c(O)cccc4F)c(Cl)c3OC[C@H]2C1` [Z15, (6aR)-8-acryloyl-4-chloro-1-((4,6-diisopropylpyrimidin-5-yl)amino)-3-(2-fluoro-6-hydroxyphenyl)-6,6a,7,8,9,10-hexahydro-12H-pyrazino[2,1-c]pyrido[3,4-f][1,4]oxazepin-12-one], the concentration for half-maximal inhibition (IC50) worked out at 10 nM in assay [1], 19000 nM in assay [2] and 15 nM in assay [3].
Consider `C=CC(=O)N1CCN2C(=O)c3c(N(C)c4c(C(C)C)ncnc4C(C)C)nc(-c4c(O)cccc4F)c(Cl)c3OC[C@H]2C1` [Z20, (6aR)-8-acryloyl-4-chloro-1-((4,6-diisopropylpyrimidin-5-yl)(methyl)amino)-3-(2-fluoro-6-hydroxyphenyl)-6,6a,7,8,9,10-hexahydro-12H-pyrazino[2,1-c]pyrido[3,4-f][1,4]oxazepin-12-one], for which the IC50 in assay [1] was 4 nM; in assay [2], 9020 nM; in assay [3] it was 8 nM.
As for `C=CC(=O)N1CCN2C(=O)c3c(N4CCC(C)(C)C4)nc(-c4c(O)cccc4F)c(Cl)c3OC[C@H]2C1` [Z21, (6aR)-8-acryloyl-4-chloro-1-(3,3-dimethylpyrrolidin-1-yl)-3-(2-fluoro-6-hydroxyphenyl)-6,6a,7,8,9,10-hexahydro-12H-pyrazino[2,1-c]pyrido[3,4-f][1,4]oxazepin-12-one], the IC50 in assay [1] is 29 nM; in assay [2] it was greater than 20000 nM; in assay [3], 65 nM.
For `C=CC(=O)N1CCN2C(=O)c3c(N4CCCC4(C)C)nc(-c4c(O)cccc4F)c(Cl)c3OC[C@H]2C1` [Z22, (6aR)-8-acryloyl-4-chloro-1-(2,2-dimethylpyrrolidin-1-yl)-3-(2-fluoro-6-hydroxyphenyl)-6,6a,7,8,9,10-hexahydro-12H-pyrazino[2,1-c]pyrido[3,4-f][1,4]oxazepin-12-one], the results for the half-maximal inhibitory concentration (IC50) in assay [1], in assay [2] and in assay [3] were 2 nM, greater than 30000 nM and 7 nM, respectively.
As to `C=CC(=O)N1CCN2C(=O)c3c(N4CCN(C)C5(CC5)C4)nc(-c4c(O)cccc4F)c(Cl)c3OC[C@H]2C1` [Z83, (6aR)-8-acryloyl-4-chloro-3-(2-fluoro-6-hydroxyphenyl)-1-(4-methyl-4,7-diazaspiro[2 .5]octan-7-yl)-6,6a,7,8,9,10-hexahydro-12H-pyrazino[2,1-c]pyrido[3,4-f][1,4]oxazepin-12 (6aH)-one], the IC50 in assay [1] is 18 nM; in assay [2], greater than 10000 nM; in assay [3] it was 37.4 nM.
On to `C=CC(=O)N1CCN2C(=O)c3c(N4C[C@@H](N(C)C)C[C@@H]4C)nc(-c4c(O)cccc4F)c(Cl)c3OC[C@H]2C1` [Z237-2, (6aR)-8-acryloyl-4-chloro-1-((2S,4S)-4-(dimethylamino)-2-methylpyrrolidin-1-yl)-3-(2-fluoro-6-hydroxyphenyl)-6,6a,7,8,9,10-hexahydro-12H-pyrazino[2,1-c]pyrido[3,4-f][1,4]oxazepin-12-one], for which the IC50 in assay [1] turned out to be 6 nM; in assay [2], 5530 nM; in assay [3] it was 7.7 nM.
Taken in the same sequence, the figures for `C=CC(=O)N1CCN2C(=O)c3c(N4CCC(OC)C4(C)C)nc(-c4c(O)cccc4F)c(Cl)c3OC[C@H]2C1` (stereo partly drawn) [Z241a, (6aR)-8-acryloyl-4-chloro-3-(2-fluoro-6-hydroxyphenyl)-1-(3-methoxy-2,2-dimethylpyrrolidin-1-yl)-6,6a,7,8,9,10-hexahydro-12H-pyrazino[2,1-c]pyrido[3,4-f][1,4]oxazepin-12-one] were 1.1 nM, 4940 nM and 2.4 nM.
Taken in the same sequence, the figures for `C=CC(=O)N1CCN2C(=O)c3c(N4CCN(CCOC)C[C@@H]4C)nc(-c4c(O)cccc4F)c(Cl)c3OC[C@H]2C1` [Z257a, (6aR)-8-acryloyl-4-chloro-3-(2-fluoro-6-hydroxyphenyl)-1-((S)-4-(2-methoxyethyl)-2-methylpiperazin-1-yl)-6,6a,7,8,9,10-hexahydro-12H-pyrazino[2,1-c]pyrido[3,4-f][1,4]oxazepin-12-one] were 4 nM, 28200 nM and 9 nM.
